The compounds below were run against GCN2 (Homo sapiens, UniProt Q9P2K8) (assay: GCN2 enzymatic endpoint assay: phosphorylation of GFP-eIF2α measured by TR-FRET (Lanthascreen)). Conditions: tested as described in Example 77; compound and/or hydrochloride, dihydrochloride or trifluoroacetic acid salt; read-out: IC 50 Activity.
Assay type: biochemical
How it was run: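 Read-out is the TR-FRET ratio of acceptor signal at 520 nm to terbium donor at 495 nm, rising with antibody binding to phosphorylated GFP-eIF2α. Endpoint format: 2 μM ATP, 80 nM substrate, 90 minutes at room temperature, EDTA stop.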

Sequence of GCN2 (Q9P2K8 whole entry): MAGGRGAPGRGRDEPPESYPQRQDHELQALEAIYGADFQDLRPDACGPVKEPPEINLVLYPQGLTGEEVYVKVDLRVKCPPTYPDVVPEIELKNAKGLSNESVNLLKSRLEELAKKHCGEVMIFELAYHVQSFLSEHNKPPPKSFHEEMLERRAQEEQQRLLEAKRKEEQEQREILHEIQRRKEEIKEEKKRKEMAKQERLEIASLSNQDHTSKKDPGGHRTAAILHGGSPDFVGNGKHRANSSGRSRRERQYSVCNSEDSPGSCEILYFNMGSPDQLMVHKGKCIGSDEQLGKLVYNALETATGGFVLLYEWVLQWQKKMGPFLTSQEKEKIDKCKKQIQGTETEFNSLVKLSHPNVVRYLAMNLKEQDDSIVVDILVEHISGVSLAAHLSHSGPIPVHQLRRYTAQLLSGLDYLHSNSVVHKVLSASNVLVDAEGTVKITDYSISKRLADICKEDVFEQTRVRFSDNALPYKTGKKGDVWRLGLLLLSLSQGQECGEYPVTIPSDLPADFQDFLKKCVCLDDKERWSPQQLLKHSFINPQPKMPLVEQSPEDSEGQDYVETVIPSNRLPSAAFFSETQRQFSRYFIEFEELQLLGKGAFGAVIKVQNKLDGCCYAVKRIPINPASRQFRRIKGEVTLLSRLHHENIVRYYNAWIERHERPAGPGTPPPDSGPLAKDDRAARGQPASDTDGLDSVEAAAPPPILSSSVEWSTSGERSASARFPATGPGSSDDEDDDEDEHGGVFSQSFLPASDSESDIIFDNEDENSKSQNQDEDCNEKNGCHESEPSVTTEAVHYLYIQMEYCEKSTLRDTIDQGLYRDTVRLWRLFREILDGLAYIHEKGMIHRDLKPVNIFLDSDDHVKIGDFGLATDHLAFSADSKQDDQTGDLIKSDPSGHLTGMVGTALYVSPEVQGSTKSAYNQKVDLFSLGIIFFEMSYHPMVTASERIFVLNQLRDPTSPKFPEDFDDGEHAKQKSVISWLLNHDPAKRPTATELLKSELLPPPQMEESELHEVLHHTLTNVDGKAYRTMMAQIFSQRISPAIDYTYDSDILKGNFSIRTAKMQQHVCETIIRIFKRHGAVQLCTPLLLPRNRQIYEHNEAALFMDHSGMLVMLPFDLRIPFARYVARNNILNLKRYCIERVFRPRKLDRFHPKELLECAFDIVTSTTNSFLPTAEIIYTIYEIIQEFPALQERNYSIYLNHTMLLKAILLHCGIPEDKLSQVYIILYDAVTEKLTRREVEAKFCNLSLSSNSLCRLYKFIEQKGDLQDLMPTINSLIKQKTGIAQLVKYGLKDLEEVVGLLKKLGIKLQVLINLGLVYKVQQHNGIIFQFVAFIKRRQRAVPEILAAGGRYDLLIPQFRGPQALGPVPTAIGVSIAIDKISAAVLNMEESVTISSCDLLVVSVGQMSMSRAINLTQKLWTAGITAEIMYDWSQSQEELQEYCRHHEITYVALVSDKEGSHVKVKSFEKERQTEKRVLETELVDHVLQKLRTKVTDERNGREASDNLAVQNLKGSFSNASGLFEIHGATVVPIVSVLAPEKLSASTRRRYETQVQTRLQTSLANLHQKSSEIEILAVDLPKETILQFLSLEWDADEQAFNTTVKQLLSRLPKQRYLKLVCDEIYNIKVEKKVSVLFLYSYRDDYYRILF

Structure (SMILES)	IC50
CNC(=O)[C@]1(C)CC[C@@H](Nc2ncc3c(Br)nn(-c4cc(O)c5c(c4)OCC(=O)N5C)c3n2)C1 [(1R,3R)-3-[[3-bromo-1-(5-hydroxy-4-methyl-3-oxo-1,4-benzoxazin-7-yl)pyrazolo[3,4-d]pyrimidin-6-yl]amino]-N,1-dimethyl-cyclo-pentanecarboxamide]	25 to 200 nM
CNC(=O)[C@]1(C)CC[C@@H](Nc2ncc3c(Br)nn(-c4cc(OC)c5c(c4)OCC(=O)N5C)c3n2)C1 [(1R,3R)-3-[[3-bromo-1-(5-methoxy-4-methyl-3-oxo-1,4-benzoxazin-7-yl)pyrazolo[3,4-d]pyrimidin-6-yl]amino]-N,1-dimethyl-cyclopentanecarboxamide]	< 25 nM
CNC(=O)[C@]1(C)CC[C@@H](Nc2ncc3c(Br)nn(-c4ccc(-c5cnccn5)nc4)c3n2)C1 [(1R,3R)-3-[[3-bromo-1-(6-pyrazin-2-yl-3-pyridyl)pyrazolo[3,4-d]pyrimidin-6-yl]amino]-N,1-dimethyl-cyclopentane-carboxamide]	25 to 200 nM
CNC(=O)[C@]1(C)CC[C@@H](Nc2ncc3c(Br)nn(-c4cc(C#N)c5nc(C)ccc5c4)c3n2)C1 [(1R,3R)-3-[[3-bromo-1-(8-cyano-2-methyl-6-quinolyl)pyrazolo[3,4-d]pyrimidin-6-yl]amino]-N,1-dimethyl-cyclopentane-carboxamide]	< 25 nM
CNC(=O)[C@]1(C)CC[C@@H](Nc2ncc3c(Br)nn(-c4cc(F)c5nc(C)ccc5c4)c3n2)C1 [(1R,3R)-3-[[3-bromo-1-(8-fluoro-2-methyl-6-quinolyl)pyrazolo[3,4-d]pyrimidin-6-yl]amino]-N,1-dimethyl-cyclopentane-carboxamide]	< 25 nM
CNC(=O)[C@]1(C)CC[C@@H](Nc2ncc3c(Br)nn(-c4cc(F)c5nc(C)cc(O)c5c4)c3n2)C1 [(1R,3R)-3-[[3-bromo-1-(8-fluoro-4-hydroxy-2-methyl-6-quinolyl)pyrazolo[3,4-d]pyrimidin-6-yl]amino]-N,1-dimethyl-cyclopentanecarboxamide]	25 to 200 nM
CNC(=O)[C@]1(CC(F)F)CC[C@@H](Nc2ncc3c(Br)nn(-c4cc(F)c5ncccc5c4)c3n2)C1 [(1R,3R)-3-[[3-bromo-1-(8-fluoro-6-quinolyl)pyrazolo[3,4-d]pyrimidin-6-yl]amino]-1-(2,2-difluoroethyl)-N-methyl-cyclopentane-carboxamide]	< 25 nM
CNC(=O)[C@]1(COC)CC[C@@H](Nc2ncc3c(Br)nn(-c4cc(F)c5ncccc5c4)c3n2)C1 [(1R,3R)-3-[[3-bromo-1-(8-fluoro-6-quinolyl)pyrazolo[3,4-d]pyrimidin-6-yl]amino]-1-(methoxymethyl)-N-methyl-cyclopentane-carboxamide]	< 25 nM
NC(=O)C1(NC(=O)[C@@H]2CC[C@@H](Nc3ncc4c(Br)nn(-c5cc(F)c6ncccc6c5)c4n3)C2)CC1 [(1R,3R)-3-[[3-bromo-1-(8-fluoro-6-quinolyl)pyrazolo[3,4-d]pyrimidin-6-yl]amino]-N-(1-carbamoylcyclopropyl)cyclopentane-carboxamide]	25 to 200 nM
CN(C(=O)[C@]1(C)CC[C@@H](Nc2ncc3c(Br)nn(-c4cc(F)c5ncccc5c4)c3n2)C1)C(C)(C)CO [(1R,3R)-3-[[3-bromo-1-(8-fluoro-6-quinolyl)pyrazolo[3,4-d]pyrimidin-6-yl]amino]-N-(2-hydroxy-1,1-dimethyl-ethyl)-N,1-dimethyl-cyclopentanecarboxamide]	< 25 nM
CN(CC(C)(C)O)C(=O)[C@]1(C)CC[C@@H](Nc2ncc3c(Br)nn(-c4cc(F)c5ncccc5c4)c3n2)C1 [(1R,3R)-3-[[3-bromo-1-(8-fluoro-6-quinolyl)pyrazolo[3,4-d]pyrimidin-6-yl]amino]-N-(2-hydroxy-2-methyl-propyl)-N,1-dimethyl-cyclopentanecarboxamide]	< 25 nM
COC(C)(C)CN(C)C(=O)[C@]1(C)CC[C@@H](Nc2ncc3c(Br)nn(-c4cc(F)c5ncccc5c4)c3n2)C1 [(1R,3R)-3-[[3-bromo-1-(8-fluoro-6-quinolyl)pyrazolo[3,4-d]pyrimidin-6-yl]amino]-N-(2-methoxy-2-methyl-propyl)-N,1-dimethyl-cyclopentanecarboxamide]	< 25 nM
CCNC(=O)[C@@H]1CC[C@@H](Nc2ncc3c(Br)nn(-c4cc(F)c5ncccc5c4)c3n2)C1 [(1R,3R)-3-[[3-bromo-1-(8-fluoro-6-quinolyl)pyrazolo[3,4-d]pyrimidin-6-yl]amino]-N-ethyl-cyclopentanecarboxamide]	25 to 200 nM
CC(C)NC(=O)[C@]1(C)CC[C@@H](Nc2ncc3c(Br)nn(-c4cc(F)c5ncccc5c4)c3n2)C1 [(1R,3R)-3-[[3-bromo-1-(8-fluoro-6-quinolyl)pyrazolo[3,4-d]pyrimidin-6-yl]amino]-N-isopropyl-1-methyl-cyclopentanecarboxamide]	< 25 nM

Further lines, results first:

IC50	Structure (SMILES)
25 to 200 nM	CNC(=O)[C@]1(C)CC[C@@H](Nc2ncc3c(Br)nn(-c4cncc(C#N)c4)c3n2)C1 [(1R,3R)-3-[[3-bromo-1-(5-cyano-3-pyridyl)pyrazolo[3,4-d]pyrimidin-6-yl]amino]-N,1-dimethyl-cyclopentane-carboxamide]
25 to 200 nM	CCS(=O)(=O)N1Cc2cc(-n3nc(Br)c4cnc(N[C@@H]5CC[C@@](C)(C(=O)NC)C5)nc43)cnc2C1 [(1R,3R)-3-[[3-bromo-1-(6-ethylsulfonyl-5,7-dihydropyrrolo[3,4-b]pyridin-3-yl)pyrazolo[3,4-d]pyrimidin-6-yl]amino]-N,1-dimethyl-cyclopentanecarboxamide]
25 to 200 nM	CNC(=O)[C@@H]1CC[C@@H](Nc2ncc3c(Br)nn(-c4ccc5ncccc5c4)c3n2)C1 [(1R,3R)-3-[[3-bromo-1-(6-quinolyl)pyrazolo[3,4-d]pyrimidin-6-yl]amino]-N-methyl-cyclopentanecarboxamide]
25 to 200 nM	CNC(=O)[C@@H]1CC[C@@H](Nc2ncc3c(Br)nn(-c4cc(C#N)c5c(c4)CCO5)c3n2)C1 [(1R,3R)-3-[[3-bromo-1-(7-cyano-2,3-dihydro-benzofuran-5-yl)pyrazolo[3,4-d]pyrimidin-6-yl]amino]-N-methyl-cyclopentanecarboxamide]
25 to 200 nM	CNC(=O)[C@]1(C)CC[C@@H](Nc2ncc3c(Br)nn(-c4cc(F)c5c(c4)CCO5)c3n2)C1 [(1R,3R)-3-[[3-bromo-1-(7-fluoro-2,3-dihydro-benzofuran-5-yl)pyrazolo[3,4-d]pyrimidin-6-yl]amino]-N,1-dimethyl-cyclopentane-carboxamide]
25 to 200 nM	CNC(=O)[C@@H]1CC[C@@H](Nc2ncc3c(Br)nn(-c4cnc5c(C#N)cccc5c4)c3n2)C1 [(1R,3R)-3-[[3-bromo-1-(8-cyano-3-quinolyl)pyrazolo[3,4-d]pyrimidin-6-yl]amino]-N-methyl-cyclopentanecarboxamide]
< 25 nM	CNC(=O)[C@]1(CC(=O)N(C)C)CC[C@@H](Nc2ncc3c(Br)nn(-c4cc(F)c5ncccc5c4)c3n2)C1 [(1R,3R)-3-[[3-bromo-1-(8-fluoro-6-quinolyl)pyrazolo[3,4-d]pyrimidin-6-yl]amino]-1-[2-(dimethylamino)-2-oxo-ethyl]-N-methyl-cyclopentanecarboxamide]
< 25 nM	CC[C@@]1(C(=O)NC)CC[C@@H](Nc2ncc3c(Br)nn(-c4cc(F)c5ncccc5c4)c3n2)C1 [(1R,3R)-3-[[3-bromo-1-(8-fluoro-6-quinolyl)pyrazolo[3,4-d]pyrimidin-6-yl]amino]-1-ethyl-N-methyl-cyclopentanecarboxamide]
25 to 200 nM	NC(=O)C1(NC(=O)[C@@H]2CC[C@@H](Nc3ncc4c(Br)nn(-c5cc(F)c6ncccc6c5)c4n3)C2)CCC1 [(1R,3R)-3-[[3-bromo-1-(8-fluoro-6-quinolyl)pyrazolo[3,4-d]pyrimidin-6-yl]amino]-N-(1-carbamoylcyclobutyl)cyclopentane-carboxamide]
25 to 200 nM	Cn1cccc(NC(=O)[C@@H]2CC[C@@H](Nc3ncc4c(Br)nn(-c5cc(F)c6ncccc6c5)c4n3)C2)c1=O [(1R,3R)-3-[[3-bromo-1-(8-fluoro-6-quinolyl)pyrazolo[3,4-d]pyrimidin-6-yl]amino]-N-(1-methyl-2-oxo-3-pyridyl)cyclopentane-carboxamide]
< 25 nM	C[C@@]1(C(=O)NCCO)CC[C@@H](Nc2ncc3c(Br)nn(-c4cc(F)c5ncccc5c4)c3n2)C1 [(1R,3R)-3-[[3-bromo-1-(8-fluoro-6-quinolyl)pyrazolo[3,4-d]pyrimidin-6-yl]amino]-N-(2-hydroxyethyl)-1-methyl-cyclopentane-carboxamide]
< 25 nM	COCCN(C)C(=O)[C@]1(C)CC[C@@H](Nc2ncc3c(Br)nn(-c4cc(F)c5ncccc5c4)c3n2)C1 [(1R,3R)-3-[[3-bromo-1-(8-fluoro-6-quinolyl)pyrazolo[3,4-d]pyrimidin-6-yl]amino]-N-(2-methoxyethyl)-N,1-dimethyl-cyclopentane-carboxamide]
25 to 200 nM	CN(C)C(=O)C1(NC(=O)[C@@H]2CC[C@@H](Nc3ncc4c(Br)nn(-c5cc(F)c6ncccc6c5)c4n3)C2)CC1 [(1R,3R)-3-[[3-bromo-1-(8-fluoro-6-quinolyl)pyrazolo[3,4-d]pyrimidin-6-yl]amino]-N-[1-(dimethylcarbamoyl)cyclopropyl]cyclo-pentanecarboxamide]
< 25 nM	C[C@@]1(C(=O)NCC2(O)CC2)CC[C@@H](Nc2ncc3c(Br)nn(-c4cc(F)c5ncccc5c4)c3n2)C1 [(1R,3R)-3-[[3-bromo-1-(8-fluoro-6-quinolyl)pyrazolo[3,4-d]pyrimidin-6-yl]amino]-N-[(1-hydroxycyclopropyl)methyl]-1-methyl-cyclopentanecarboxamide]
< 25 nM	CCNC(=O)[C@]1(C)CC[C@@H](Nc2ncc3c(Br)nn(-c4cc(F)c5ncccc5c4)c3n2)C1 [(1R,3R)-3-[[3-bromo-1-(8-fluoro-6-quinolyl)pyrazolo[3,4-d]pyrimidin-6-yl]amino]-N-ethyl-1-methyl-cyclopentanecarboxamide]
< 25 nM	CCN(C)C(=O)[C@]1(C)CC[C@@H](Nc2ncc3c(Br)nn(-c4cc(F)c5ncccc5c4)c3n2)C1 [(1R,3R)-3-[[3-bromo-1-(8-fluoro-6-quinolyl)pyrazolo[3,4-d]pyrimidin-6-yl]amino]-N-ethyl-N,1-dimethyl-cyclopentanecarboxamide]
